Source: patent US8846762B2, “Benzopyran and benzoxepin PI3K inhibitor compounds and methods of use” (Genentech, Inc., priority 2008, dated 2014)

Experiments:
[1] = Body weight change over the course of treatment in the xenograft study, as an indicator of safety; format: in vivo, Taconic nude mice; settings: 50 and 100 mg/kg, orally daily for 21 days
[2] = test system: pAkt (phospho-Akt); assay: phospho AKT induction assay; format: cell-based; settings: in each study (Example 284); cells treated with an EC80 of the compound
Description: In a 6-well tissue culture plate cells were seeded at 5×10^5 cells per well overnight. […] Determination of protein concentration was performed using the Pierce BCA Protein Assay Kit (Rockford, Ill.). Levels of pAkt (Ser^473) and total Akt were assessed using bead kits from Biosource (Carlsbad, Calif.) and the Luminex Bio-Plex system (Bio-Rad, Hercules, Calif.).

For `CNC(=O)c1ccc2c(c1)OCCc1cc(C(=O)N(C)c3ccc(C(=O)N(C)C)cc3Cl)sc1-2` [Compound 223, N2-(2-chloro-4-(dimethylcarbamoyl)phenyl)-N2,N8-dimethyl-4,5-dihydrobenzo[b]thieno[2,3-d]oxepine-2,8-dicarboxamide], the “body weights compared with the group administered Vehicle” value [1] was “did not significantly differ” and the “pAkt (phospho-Akt), a potential biomarker of PI3K signal transduction disruption” value [2] was “suppressed pAkt”.
